ChEMBL document CHEMBL1255532, “Cytotoxic cycloartane triterpene and rare isomeric bisclerodane diterpenes from the leaves of Polyalthia longifolia var. pendula” (Bioorg Med Chem Lett, 2010)
≈ marks a conversion by molar mass, not a printed value.

Legend:
MCF7 = assay: Cytotoxicity against human MCF7 cells after 48 hrs by SRB assay; type: functional, cell-based; conditions: MCF7, 48 h
KB = assay: Cytotoxicity against human KB cells after 48 hrs by SRB assay; type: functional, cell-based
C-33-A = assay: Cytotoxicity against human C33A cells after 48 hrs by SRB assay; type: functional, cell-based
A549 = assay: Cytotoxicity against human A549 cells after 48 hrs by SRB assay; type: functional, cell-based; conditions: A549, 48 h
[1] = Cytotoxicity against mouse NIH/3T3 cells after 48 hrs by SRB assay; type: cell-based; conditions: NIH3T3, 48 h

| SMILES | IC50 (MCF7) [µg/mL] | IC50 (KB) [µg/mL] | IC50 (C-33-A) [µg/mL] | IC50 (A549) [µg/mL] | IC50 [1] [µg/mL] |
| --- | --- | --- | --- | --- | --- |
| COc1cccc2c1C(=O)c1c(O)c3c(c(O)c1C2=O)C[C@@](O)(C(=O)CO)C[C@@H]3O[C@H]1C[C@H](N)[C@H](O)[C@H](C)O1 [DOXORUBICIN] | 0.45 (≈ 0.828 µM) | 0.12 (≈ 0.221 µM) | 0.28 (≈ 0.515 µM) | 0.33 (≈ 0.607 µM) | – |
| CC1=CCC[C@@H]2[C@@](C)(CCC3=CC(=O)N(/C=C(\CC[C@@]4(C)[C@H](C)CC[C@@]5(C)C(C)=CCC[C@H]45)CC(=O)O)C3=O)[C@H](C)CC[C@@]12C [LONGIMIDE A] | 9.23 (≈ 14.9 µM) | 8.85 (≈ 14.3 µM) | 4.12 (≈ 6.67 µM) | 10.1 (≈ 16.4 µM) | 44.7 (≈ 72.3 µM) |
| C=C(C(C)C)[C@@H](O)C[C@@H](C)[C@H]1[C@@H](O)C[C@@]2(C)[C@@H]3CC[C@H]4C(C)(C)[C@@H](O)CC[C@@]45C[C@@]35CC[C@]12C [LONGITRIOL] | 30.9 (≈ 65.3 µM) | 24.1 (≈ 51 µM) | 10 (≈ 21.2 µM) | 13.2 (≈ 27.9 µM) | > 50 |
